We go through four compounds from paper PMC6331910, “The Curcumin Analogue 1,5-Bis(2-hydroxyphenyl)-1,4-pentadiene-3-one Induces Apoptosis and Downregulates E6 and E7 Oncogene Expression in HPV16 and HPV18-Infected Cervical Cancer Cells” (Molecules, 2015).

Read-outs that look alike come from different tables or passages of the source.

Series [1] has as its system CaSki. Put plainly: MTT cell viability (dose-dependent cytotoxicity) assay, 72 h. It counts as cell-based, human. The settings on record: for Selective Index CaSki: EC50 (MRC9)/EC50 (CaSki) × 100; for EC50: read-out: EC50 (Mean ± S.E.M.) CaSki. On the procedure:
(§1) Control-treated wells contained cells incubated in media with equal volumes of DMSO (0.2%). […] The media was aspirated and cells were incubated in 100 µL complete medium with 0.5 mg/mL MTT solution for 4 h in the dark to allow metabolism of MTT by cellular mitochondrial dehydrogenases. The excess MTT was aspirated and the formazan crystals formed were dissolved by the addition of 100 µL of DMSO. The absorbance of dark blue formazan was read at 570/650 nm wavelengths using a microplate reader (Bio-Rad Benchmark Plus Microplate Spectrophotometer, Hercules, CA, USA). Triplicate absorbance values were averaged and the effect of the compounds on growth inhibition was assessed as percentage cell viability as follows: […] The results were analysed using GraphPad Prism version 6.00 for Windows (GraphPad Software, La Jolla, CA, USA). […] Overall EC50 was determined by taking the average EC50 from three independent experiments.

For series [2], the system named is HeLa. Described as above. The series is classed as cell-based, human. The settings on record: for Selective Index HeLa: EC50 (MRC9)/EC50 (HeLa) × 100; for EC50: read-out: EC50 (Mean ± S.E.M.) HeLa. As to the method:
as §1

In series [3] the test system is CaSki. Put plainly: MTT anti-proliferative (time-dependent) assay, 24, 48 and 72 h. It counts as cell-based, human. The settings on record: for concentration from which a notable decline in cell viability was caused / effect on cell viability: at 24, 48 and 72 h; for cell viability: 6.3–100 μM. On the procedure:
(§2) HeLa, CaSki and MRC9 cells were plated in triplicate wells in 96-well flat-bottomed tissue culture plates (Nunc, Roskilde, Denmark) with 10^5 cells per mL in 100 μL culture media with working concentrations of diarylpentanoid treatment ranging from 1.6 to 100 μM. Control-treated wells contained cells incubated in media with equal volumes of DMSO (0.2%). Cells were treated for 72 h for dose-dependent cytotoxicity assays and at 24, 48 and 72 h for anti-proliferative (time-dependent) assays. In order to assess cell viability and anti-proliferative activity after diarylpentanoid treatment, the colorimetric 3-(4,5-dimethylthiazol-2-yl)-2,5-diphenyltetrazolium bromide (MTT) assay was performed as previously described with modifications. The media was aspirated and cells were incubated in 100 µL complete medium with 0.5 mg/mL MTT solution for 4 h in the dark to allow metabolism of MTT by cellular mitochondrial dehydrogenases. The excess MTT was aspirated and the formazan crystals formed were dissolved by the addition of 100 µL of DMSO. The absorbance of dark blue formazan was read at 570/650 nm wavelengths using a microplate reader (Bio-Rad Benchmark Plus Microplate Spectrophotometer, Hercules, CA, USA). Triplicate absorbance values were averaged and the effect of the compounds on growth inhibition was assessed as percentage cell viability as follows: (1) Percentage cell viability =Absorbance of Test − Absorbance of Blank (media only)/Absorbance of Control − Absorbance of Blank (media only) × 100 where, absorbance = optical density of sample, O.D.; control = untreated sample; test = treated sample.
(§3) An independent set of vehicle-treated (DMSO only) controls were included in the anti-proliferative assays to assess the proliferation of untreated cancer cells over 24, 48 and 72 h. As such, the cell viability at 24 h was used as a baseline to measure proliferation rate at 48 and 72 h. (2) Percentage cell viability = […]/Absorbance of Control (24 h) × Absorbance of Blank (media only) × 100

In series [4] the test system is HeLa. Described as above. It counts as cell-based, human. The settings on record: for concentration from which a notable decline in cell viability was caused / cell growth: at 24, 48 and 72 h; for reduction of cell viability: 12.5 μM and above. On the procedure:
as §2, §3

Series [5] concerns MRC9. Put plainly: MTT cell viability (cytotoxicity) assay on non-cancerous lung fibroblasts, 72 h. It counts as cell-based. The settings on record: Homo sapiens, read-out: EC50 (Mean ± S.E.M.) MRC9. On the procedure:
as §2
The results were analysed using GraphPad Prism version 6.00 for Windows (GraphPad Software, La Jolla, CA, USA). Using percentage cell viability Equation (1), log dose–response curves were constructed, from which the half maximal effective concentration, EC50 for each replicate was determined. Overall EC50 was determined by taking the average EC50 from three independent experiments. […] (3) Selectivity Index (SX) =EC50 (MRC9)/EC50 (Cancer cell line) × 100

The mark [6] stands for this setting: Homo sapiens, Ca-Ski, MTT, 72 h.
[7] abbreviates: MRC9, MTT, 72 h, non-cancerous lung fibroblasts.

As usually defined, the inhibition is the drop in the measured response relative to a control, in per cent. For orientation: EC50 means the concentration that produces a half-maximal response. Turning to `COc1cc(/C=C/C(=O)CC(=O)/C=C/c2ccc(O)c(OC)c2)ccc1O` [Curcumin], the “Selective Index CaSki” value in series [1] is 168. The inhibition at 25 µM in series [1] (Homo sapiens, Ca-Ski, CaSki, 25 μM, 72 h, read-out: growth inhibition) turned out to be 50%. Moreover, the half-maximal effective concentration (EC50) in series [1] (setting [6]) was determined as 15.8 ± 3.1 µM; in series [2] (Homo sapiens, HeLa, MTT, 72 h) it was 26.7 ± 14.3 µM; in series [5] (setting [7]), 26.6 ± 3.2 µM. In series [2], the “Selective Index HeLa” value was 100. In addition, in series [2] (Homo sapiens, HeLa, beginning at 50 μM, 72 h, read-out: growth inhibition), the inhibition at 50 µM was approximately 50%. In addition, the “concentration from which a notable decline in cell viability was caused” value (“concentration” below) is 25 µM in series [3] and 50 µM in series [4]. Further, in series [3] (from 25 μM onwards), the “effect on cell viability” value is on record as “significant decline in cell viability”. In addition, the cell growth result in series [4] (onwards from 50 μM) is recorded as “below 50%”.

As a reminder, the cell viability is a read-out of living cells in per cent, often relative to untreated cells. A word on the viability: it is a per cent measure of how many cells are alive, often set against a control. Regarding `COc1cc(C=CC(=O)C=Cc2ccc(O)c(OC)c2)ccc1O` [MS13, 1,5-bis(4-hydroxy-3-methoxyphenyl)-1,4-pentadiene-3-one], the “decrease in cell growth” value in series [1] (CaSki, 3.1 μM, 72 h) is reported as 50%. In addition, in series [1] (CaSki, 6.3–100 μM, 72 h), the “cell growth after treatment” value is “around 10%”. For the same compound, the “Selective Index CaSki” value in series [1] came to 346. The EC50 in series [1] (Homo sapiens, Ca-Ski, 72 h) came to 2.8 ± 0.4 µM; in series [2] (Homo sapiens, HeLa, 72 h), 6.7 ± 2.4 µM; in series [5] (MRC9, 72 h), 9.7 ± 2.4 µM. Also, the “Selective Index HeLa” value in series [2] amounted to 145. For the same compound, the cell viability entry is “less than 10%” in series [2] (HeLa, beyond 12.5 μM, 72 h); 21% in series [3] (48 h); 9% in series [3] (72 h). Also, the viability at 12.5 µM in series [2] (Homo sapiens, HeLa, 12.5 μM, 72 h) was approximately 12%; in series [3] (Homo sapiens, Ca-Ski, 12.5 μM, 24 h, read-out: decline of cell viability) it was approximately 50%. For the same compound, the results for the “dosage from which reduction in cell viability was significantly higher at 48 and 72 h than at 24 h” value in series [3] and in series [4] were 6.3 µM and 12.5 µM, respectively. For the same compound, the “reduction of cell viability” value in series [4] (24 h) is on record as 72%; in series [4] (48 h) it was “approximately 91%”; in series [4] (72 h), approximately 95%.

Take `O=C(C=Cc1cccc(F)c1)C=Cc1cccc(F)c1` [MS40E, 1,5-bis(3-fluorophenyl)-1,4-pentadiene-3-one]: in series [1], the “Selective Index CaSki” value was determined as 906. Besides, the inhibition at 6.3 µM in series [1] (Homo sapiens, Ca-Ski, CaSki, 6.3 μM, 72 h, read-out: growth inhibition) worked out at 80%. The inhibition at 100 µM in series [1] (Homo sapiens, Ca-Ski, CaSki, 100 μM, 72 h, read-out: growth inhibition) is 90%. The EC50 came to 3.5 ± 0.4 µM in series [1] (setting [6]); 15.5 ± 1.9 µM in series [2] (Homo sapiens, HeLa, MTT, 72 h); 31.7 ± 3.2 µM in series [5] (setting [7]). For the same compound, in series [2], the “Selective Index HeLa” value worked out at 204. In addition, the inhibition at 25 µM in series [2] (Homo sapiens, HeLa, beginning at 25 μM, 72 h, read-out: growth inhibition) is approximately 75%. In series [3] (12.5 μM onwards), the “effect on cell viability” value is “significant decline in cell viability”. In addition, the “concentration” value came out at 12.5 µM in series [3] and 25 µM in series [4]. For the same compound, the cell growth result in series [4] (onwards from 25 μM) is listed as “below 50%”.

On to `O=C1C(=Cc2cccc(F)c2)CCCC1=Cc1cccc(F)c1` [MS49, 2,6-bis(3-fluorobenzylidene)cyclohexanone], for which the cell viability entry in series [1] (CaSki, 25–100 μM, 72 h) was “around 10%”. Moreover, in series [1], the “Selective Index CaSki” value worked out at 273. Moreover, the viability at 12.5 µM in series [1] (Homo sapiens, Ca-Ski, CaSki, 12.5 μM, 72 h) was determined as 20%. Further, the 50% effective concentration (EC50) stood at 6 ± 2.9 µM in series [1] (setting [6]); 8.3 ± 4.6 µM in series [2] (Homo sapiens, HeLa, MTT, 72 h); 16.4 ± 4.4 µM in series [5] (setting [7]). Moreover, the “Selective Index HeLa” value in series [2] is 199. Besides, the inhibition at 12.5 µM in series [2] (Homo sapiens, HeLa, beginning at 12.5 μM, 72 h, read-out: growth inhibition) is approximately 75%. The “effect on cell viability” value in series [3] (12.5 μM onwards) was “significant decline in cell viability”. For the same compound, the results for the “concentration” value in series [3] and in series [4] were 12.5 µM and 25 µM, respectively. The cell growth entry in series [4] (onwards from 25 μM) is recorded as “below 50%”.
